Source: US20090176817A1, “Method of Treatment of Diarrhea-Predominant Irritable Bowel Syndrome in a Subject” (priority 2005, published 2009)

System: diarrhea-predominant IBS subjects
Assay: Study S241.3.011: weekly diary questions on adequate relief
Type: in vivo, human
Protocol: Study S241.3.011 was a Phase III, double-blind, placebo-controlled, randomized, multinational study to investigate the safety and efficacy of 2 mg TID of cilansetron for a period of 12 weeks followed by a rerandomized, placebo-controlled four-week treatment period, in diarrhea-predominant IBS subjects. The study was conducted in six countries including the US. A total of 2115 subjects consented to participate, and 770 subjects were randomized. A total of 746 subjects were analyzed for efficacy and 755 subjects were analyzed for safety. Diagnosis and main criteria for inclusion were IBS subjects satisfying the Rome I criteria (1992); the diarrhea predominant sub-population of the Rome II criteria; and a minimum abdominal pain/discomfort, stool frequency and consistency determined during the run-in period. Subjects were treated with cilansetron 2 mg tablets given orally TID or matching placebo tablets given orally TID for 12 weeks followed by a rerandomized, placebo-controlled four-week treatment period.
The primary efficacy parameter was the number of months that a subject was a responder for IBS symptoms (abdominal pain, abdominal discomfort, abnormal bowel habits) over the 12-week treatment period. A responder for a month (monthly responder) was defined as a subject who answered the weekly question with “yes” at least twice for that month. The two main secondary efficacy parameters were the monthly responder rates based on the “adequate relief” questions regarding abdominal pain/discomfort and abnormal bowel habits during the 12-week treatment period. The overall response rate and responder rate for the weekly diary questions on adequate relief at each month and all months, the adequate relief rate, the number of subjects with adequate relief by week, daily diary questions, IBS-QOL scores, and the interruption of activities were also assessed. Safety was evaluated by physical examination, ECG, vital signs, laboratory evaluations, concomitant medications, and AEs.
Subjects who were initially randomized to the cilansetron 2 mg TID group and rerandomized to placebo, will be referred to as the C/P treatment group; subjects initially randomized to the placebo group and rerandomized to placebo will be referred to as the P/P treatment group; the P/C and C/C treatment group nomenclature follow the same principle. Of the 591 subjects who completed the three-month treatment period, 576 subjects were rerandomized and thus divided into the following treatment groups: 150 subjects in the C/C treatment group, 140 subjects in the C/P treatment group, 136 subjects in the P/C treatment group, and 150 subjects in the P/P treatment group. Of the 576 subjects rerandomized, a higher percentage of subjects in the C/C treatment group (99%) completed the study compared with the C/P (95%), P/C (93%), and the P/P (95%) treatment groups.
Studies S24 1.3.OO6, S24 1.3.0 1 1, and S24 1.3.009 used the following efficacy measurements: • The subjects answered the following three questions with “yes” or “no” using a phone diary at the end of each week: • a) During the last week, did you experience adequate relief of your IBS symptoms, such as abdominal pain, abdominal discomfort, abnormal bowel habits? • b) During the last week, did you experience adequate relief of your abdominal pain and/or discomfort? • c) During the last week, did you experience adequate relief of your abnormal bowel habits? • The subjects rated the following symptoms using the phone diary at the end of each day: • abdominal pain/discomfort (five-point scale); • stool consistency (seven-point Bristol Stool Scale); • stool frequency (number of bowel movements each day); • urgency (five-point scale); • straining (yes or no); • feeling of incomplete defecation (yes or no); • bloating or feeling of abdominal distension (five-point scale). • In Studies S241 A006 and S241.3.009, subjects completed the IBS-QOL Survey at Baseline (Day 1) and at the end of treatment. […]

[1] = 2 mg TID, monthly LOCF, ITT N = 377
[2] = 2 mg TID, three-month treatment period, monthly LOCF, ITT N = 377
[3] = 2 mg TID, three-month treatment period, observed case, ITT N = 377
[4] = Baseline BMI: <30 kg/m^2, three-month treatment period, monthly LOCF, ITT, 2 mg TID

SMILES: Cc1nccn1C[C@H]1CCc2c(c3cccc4c3n2CCC4)C1=O [Cilansetron, (R)-(−)-4,5,6,8,9,10-hexahydro-10-[(2-methyl-1H-imidazol-1-yl)methyl]-11H-pyrido-[3,2,1-jk]-carbazol-11-one]
- Responders for one month, IBS symptoms (2 mg TID, 3 months): 14%
- Responders for one month, abdominal pain/discomfort (2 mg TID, 3 months): 12%
- Responders for one month, abnormal bowel habits (2 mg TID, 3 months): 13%
- Responders for three months, IBS symptoms (2 mg TID, 3 months): 39%
- Responders for three months, abdominal pain/discomfort (2 mg TID, 3 months): 42%
- Responders for three months, abnormal bowel habits (2 mg TID, 3 months): 40%
- Responders for two months, IBS symptoms (2 mg TID, 3 months): 19%
- Responders for two months, abdominal pain/discomfort (2 mg TID, 3 months): 19%
- Responders for two months, abnormal bowel habits (2 mg TID, 3 months): 18%
- Responders for zero months, IBS symptoms (2 mg TID, 3 months): 28%
- Responders for zero months, abdominal pain/discomfort (2 mg TID, 3 months): 27%
- Responders for zero months, abnormal bowel habits (2 mg TID, 3 months): 30%
- Responder rate, adequate relief of IBS symptoms, Each month of Months 1 to 3 [1]: 148 (39) n (%)
- Responder rate, adequate relief of IBS symptoms, Month 1 [1]: 216 (57) n (%)
- Responder rate, adequate relief of IBS symptoms, Month 2 [1]: 214 (57) n (%)
- Responder rate, adequate relief of IBS symptoms, Month 3 [1]: 208 (55) n (%)
- Responder rate, adequate relief of abdominal pain/discomfort, Each month of Months 1 to 3 [1]: 159 (42) n (%)
- Responder rate, adequate relief of abdominal pain/discomfort, Month 1 [1]: 217 (58) n (%)
- Responder rate, adequate relief of abdominal pain/discomfort, Month 2 [1]: 229 (61) n (%)
- Responder rate, adequate relief of abdominal pain/discomfort, Month 3 [1]: 220 (58) n (%)
- Responder rate, adequate relief of abnormal bowel habits, Each month of Months 1 to 3 [1]: 149 (40) n (%)
- Responder rate, adequate relief of abnormal bowel habits, Month 1 [1]: 214 (57) n (%)
- Responder rate, adequate relief of abnormal bowel habits, Month 2 [1]: 209 (55) n (%)
- Responder rate, adequate relief of abnormal bowel habits, Month 3 [1]: 206 (55) n (%)
- Subjects who were responders for One month, adequate relief of IBS symptoms [2]: 54 (14) n (%)
- Subjects who were responders for One month, adequate relief of abdominal pain/discomfort [2]: 45 (12) n (%)
- Subjects who were responders for One month, adequate relief of abnormal bowel habits [2]: 50 (13) n (%)
- Subjects who were responders for Three months, adequate relief of IBS symptoms [2]: 148 (39) n (%)
- Subjects who were responders for Three months, adequate relief of abdominal pain/discomfort [2]: 159 (42) n (%)
- Subjects who were responders for Three months, adequate relief of abnormal bowel habits [2]: 149 (40) n (%)
- Subjects who were responders for Two months, adequate relief of IBS symptoms [2]: 70 (19) n (%)
- Subjects who were responders for Two months, adequate relief of abdominal pain/discomfort [2]: 72 (19) n (%)
- Subjects who were responders for Two months, adequate relief of abnormal bowel habits [2]: 66 (18) n (%)
- Subjects who were responders for Zero months, adequate relief of IBS symptoms [2]: 105 (28) n (%)
- Subjects who were responders for Zero months, adequate relief of abdominal pain/discomfort [2]: 101 (27) n (%)
- Subjects who were responders for Zero months, adequate relief of abnormal bowel habits [2]: 112 (30) n (%)
- Overall responder rate, adequate relief of IBS symptoms [3]: 206 (55) n (%)
- Overall responder rate, adequate relief of abdominal pain/discomfort [3]: 221 (59) n (%)
- Overall responder rate, adequate relief of abnormal bowel habits [3]: 203 (54) n (%)
- Median adequate relief rate, IBS symptoms (3 months): 0.58
- Median adequate relief rate, abdominal pain/discomfort (3 months): 0.58
- Median adequate relief rate, abnormal bowel habits (3 months): 0.58
- Overall responder rate, IBS symptoms (3 months, observed case, ITT): 55%
- Overall responder rate, abdominal pain/discomfort (3 months, observed case, ITT): 59%
- Overall responder rate, abnormal bowel habits (3 months, observed case, ITT): 54%
- Responder rate, abdominal pain/discomfort (Argentina and Chile): 65%
- Number of months a subject was a responder: One month (Abdominal pain/discomfort) [4]: 30 (11) n (%)
- Number of months a subject was a responder: One month (Abnormal bowel habits) [4]: 33 (12) n (%)
- Number of months a subject was a responder: One month (IBS symptoms) [4]: 38 (14) n (%)
- Number of months a subject was a responder: Three months (Abdominal pain/discomfort) [4]: 113 (42) n (%)
- Number of months a subject was a responder: Three months (Abnormal bowel habits) [4]: 104 (39) n (%)
- Number of months a subject was a responder: Three months (IBS symptoms) [4]: 107 (40) n (%)
- Number of months a subject was a responder: Two months (Abdominal pain/discomfort) [4]: 50 (19) n (%)
- Number of months a subject was a responder: Two months (Abnormal bowel habits) [4]: 51 (19) n (%)
- Number of months a subject was a responder: Two months (IBS symptoms) [4]: 48 (18) n (%)
- Number of months a subject was a responder: Zero months (Abdominal pain/discomfort) [4]: 73 (27) n (%)
- Number of months a subject was a responder: Zero months (Abnormal bowel habits) [4]: 78 (29) n (%)
